Source: PMC9520775, “Everolimus pharmacokinetics and exposure-response relationship in Japanese patients with advanced breast cancer” (Frontiers in Pharmacology, 2022)
Where two headings read alike, the source gives them in different places.

What was measured:
[1] = tested on: patients; settings: cited from earlier work
[2] = Everolimus whole blood concentrations and Bayesian estimation of PK parameters and trough concentrations; type: in vivo, human; settings: for trough concentration estimate at grade 2 stomatitis: person
Experimental: Whole blood samples for the everolimus assay were collected at least two weeks after initiation of treatment or after the last everolimus dose change. Blood samples were collected at pre-dose, 1, 4, and 8 h after the everolimus dose. Blood everolimus concentrations were measured using a latex agglutination turbidimetric immunoassay ([Mori et al., 2014]) for the samples collected during November 2015 to September 2016 (n = 10) and using electrochemiluminescence immunoassay ([Blackburn et al., 1991]) for the samples collected during October 2016 to November 2018 (n = 8). Since these two techniques are highly correlated, the measured results were considered to be the same (r = 0.972) ([Sasano et al., 2016]).
PK parameters such as clearance (CL) and volume of distribution were estimated using Bayesian analysis in MW/Pharm++ software (Mediware, Prague, Czech Republic) ([Fuchs et al., 2013]). […] Ka was fixed for all analyses due to the limited data to characterize the absorption. The PK parameters were allometrically scaled to body weight to account for the effect of body size differences according to the following formula: Pi=Ppop×(BWi/BWstandard)^power where Pi was the estimated PK parameter for individual i, Ppop was the typical population value of the PK parameters. BWstandard was the standard body weight of 70 kg. The power coefficient was 0.75 for CL and intercompartment clearance and 1 for volume of distribution of the central compartment and the peripheral compartment.
Everolimus concentrations at steady-state or at the time of occurrence of dose-limiting toxicity was estimated using the Bayesian-estimated PK parameters of the individual patient.

[3] = parameters: method as in de Wit et al. (2016); settings: ref de Wit et al. (2016), cited from earlier work
[4] = parameters: method as in Miesner et al. (2016); settings: kidney cancer patient, 10 mg everolimus, concomitant clarithromycin 500 mg twice daily for 12 days, acute renal failure; ref Miesner et al. (2016); cited from earlier work
[5] = tested on: patients with advanced or metastatic breast cancer; experiment: Progression-free survival (Kaplan-Meier, log-rank); type: in vivo, human; settings: for PFS: single patient
Source text: This was a prospective, observational PK study. Patients with advanced or metastatic breast cancer who received everolimus between November 2015 and November 2018 at Kobe City Medical Center General Hospital were enrolled in this study. The main inclusion criteria included the following: age ≥20 years; Eastern Cooperative Oncology Group (ECOG) performance status (PS): 0 or 1; and adequate bone marrow, liver, and renal function. The main exclusion criteria were interstitial pneumonia or pulmonary fibrosis, HBsAg positive, and psychiatric or psychological symptoms that made it difficult to participate in the study. Every participant provided written informed consent. This study was conducted in accordance with the Declaration of Helsinki and approved by the Institutional Review Board, under Approval Number zn151103.
Statistical differences in everolimus trough concentrations, doses and body weights between patient cohorts were assessed using the Mann–Whitney test. Progression-free survival (PFS) was assessed using the Kaplan-Meier method and the log-rank test. All statistical analyses were performed using GraphPad Prism version 7.03 (San Diego, CA). p < 0.05 was considered statistically significant.

[6] = cited from earlier work
[7] = five patients who did not experience DLTs
[8] = patients with breast, kidney and neuroendocrine cancer, ref Deppenweiler et al. (2017)

CO[C@H]1C[C@@H]2CC[C@@H](C)[C@@](O)(O2)C(=O)C(=O)N2CCCC[C@H]2C(=O)O[C@H]([C@H](C)C[C@@H]2CC[C@@H](OCCO)[C@H](OC)C2)CC(=O)[C@H](C)/C=C(\C)[C@@H](O)[C@@H](OC)C(=O)[C@H](C)C[C@H](C)/C=C/C=C/C=C/1C [everolimus]
incidence of stomatitis ([1]; Japanese breast cancer patients, ref BOLERO-2 study): 88%
proportion of patients who required a second dose reduction to 2.5 mg daily ([1]; clinical study in Spain (6/90), ref Pascual et al., 2017): 7%
proportion of patients who required a dose reduction to 5 mg daily ([1]; clinical study in Spain (43/90), ref Pascual et al., 2017): 48%
incidence of stomatitis ([1]; patients with breast cancer, ref Alexopoulos et al., 2022, Ruíz-Falcó Rojas et al., Tedesco-Silva et al.): 20%–50%
incidence of stomatitis ([1]; renal transplant or tuberous sclerosis complex, ref Alexopoulos et al., 2022, Ruíz-Falcó Rojas et al., Tedesco-Silva et al.): approximately 10%
steady-state trough concentrations at the starting dose, range ([2]; 5 mg starting dose, six patients, approximated with Bayesian-estimated PK parameters): 11.3 to 29.6 ng/mL
estimated steady-state trough concentration when the dose was reduced and maintained without DLT, range ([2]; 13 patients who had DLTs): 5.7 to 24.2 ng/mL
median estimated steady-state trough concentration when the dose was reduced and maintained without DLT ([2]; 13 patients who had DLTs): 8.3 ng/mL
estimated trough concentration at the time of the DLTs, range ([2]; 13 patients with DLTs): 11.3 to 64.6 ng/mL
median estimated trough concentration at the time of the DLTs ([2]; 13 patients with DLTs): 19.0 ng/mL
CL, Mean ([2]; Bayesian estimate, steady state, Japanese breast cancer patients n = 18, scaled to 70 kg): 11.7 L/h/70 kg
estimated trough concentration after dose reduction ([2]; all patients except in one patient): higher than 6 ng/ml
steady-state trough concentration after restarting the treatment ([2]; case Figure 3A, 5 mg once daily, no DLTs): 8.4 ng/mL
trough concentration estimate at grade 2 stomatitis ([2]; case Figure 3A, 10 mg once daily, two weeks after initiation): 16.8 ng/mL
steady-state trough concentration after everolimus dose reduction ([2]; case Figure 3B, 5 mg every alternate day): 9.2 ng/mL
trough concentration estimate at grade 2 stomatitis ([2]; case Figure 3B, 5 mg once daily, day 90): 29.6 ng/mL
trough concentration, median [2, 7]: 19.0 ng/mL
trough concentration, range [2, 7]: 12.8 to 33.2 ng/mL
clearance (CL), range ([2]; inter-individual range, n = 18): 5.1–21.3 L/h/70 kg
volume of distribution of the central compartment, range ([2]; inter-individual range, n = 18): 9.9–103.6 L/70 kg
dose-adjusted trough concentrations, range ([2]; whole blood, steady state, doses 10, 5, 2.5 mg/day or 5 mg every alternate day): 1.3 to 6.5 ng/mL/mg/day
absorption rate constant (Ka) ([3]; fixed for all analyses): 0.643 h⁻¹
clearance (CL), population prior ([3]; two-compartment model, patients with thyroid cancer): 20.3 L/h
trough level of everolimus [4]: 110 ng/mL
PFS ([5]; case Figure 3A): 8.5 months
PFS ([5]; case Figure 3B): 13.8 months
trough concentration to which adjusting may significantly prolong PFS ([5]; discussion statement): 10 to 20 ng/mL
trough concentration group with significantly longer PFS ([5]; groups <10 (n = 9), 10–20 (n = 6), >20 ng/ml (n = 3), log-rank p = 0.0078): 10 to 20 ng/mL
number of patients with PFS more than 8.5 months ([5]; of 18 patients): 14
PFS, range ([5]; study population, n = 18): 1.7–55.8 months
median PFS ([5]; study population, n = 18, with exemestane): 13.7 months
suggested target trough concentration ([6]; kidney transplant patients, calcineurin-inhibitor-free regimen, ref Shipkova et al., 2016): 6 to 10 ng/mL
trough concentration associated with increased risk of progression [6, 8]: lower than 11.9 ng/ml
trough concentration associated with increased risk of toxicity [6, 8]: higher than 26.3 ng/ml
trough concentration threshold for increased risk of overall severe toxicity ([6]; review, ref Falkowski and Woillard (2019)): higher than 20 ng/ml
increase of risk of toxicity ([6]; trough concentrations higher than 26.3 ng/ml, ref Deppenweiler et al. (2017)): 4 fold
increase of risk of progression ([6]; trough concentrations lower than 11.9 ng/ml, ref Deppenweiler et al. (2017)): 3 fold
suggested target trough concentration ([6]; tuberous sclerosis, ref Combes et al., 2018): 5 to 15 ng/mL
